Laboratory results reported in ChEMBL document CHEMBL1136286, “Unexpected enhancement of thrombin inhibitor potency with o-aminoalkylbenzylamides in the P1 position” (Bioorg Med Chem Lett, 2003).

How the values were obtained:
[1] = species on record: Homo sapiens; assay: Concentration needed to double the activated partial thromboplastin time in human plasma; assay type: functional
[2] = molecular target: Prothrombin (Homo sapiens, UniProt P00734); assay: Inhibitory constant evaluated against thrombin (Factor IIa)
[3] = molecular target: T1, Serine protease 1 (Homo sapiens, UniProt P07477); assay: Inhibitory constant evaluated against trypsin
T1 sequence (P07477 whole entry): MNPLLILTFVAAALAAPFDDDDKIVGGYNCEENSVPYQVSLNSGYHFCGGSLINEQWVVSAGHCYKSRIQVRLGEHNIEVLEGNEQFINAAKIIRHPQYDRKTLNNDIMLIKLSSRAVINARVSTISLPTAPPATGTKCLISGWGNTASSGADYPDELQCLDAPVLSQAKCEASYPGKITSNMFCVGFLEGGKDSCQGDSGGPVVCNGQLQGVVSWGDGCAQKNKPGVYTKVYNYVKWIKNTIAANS

[4] = molecular target: T1, Serine protease 1; assay: Ratio of inhibitory constant evaluated against trypsin to that of thrombin (Factor IIa)

## Cc1ccc(NS(=O)(=O)Cc2ccccc2)c(=O)n1CC(=O)NCc1cc(Cl)ccc1CCN
[1]
  2x APTT: 0.18 µM
[2]
  Ki: 0.05 nM
[3]
  Ki: 37 µM
[4]
  Selectivity ratio: 740000

## NCc1ccccc1CNC(=O)[C@@H]1CCCN1C(=O)[C@H](N)Cc1ccccc1
[2]
  Ki: 313 nM
[3]
  Ki: 106 µM
[4]
  Selectivity ratio: 339

## N[C@H](Cc1ccccc1)C(=O)N1CCC[C@H]1C(=O)NCc1cccc(Cl)c1
[2]
  Ki: 250 nM
[3]
  Ki: 89 µM
[4]
  Selectivity ratio: 356

## NCc1ccc(Cl)cc1CNC(=O)Cn1c(Cl)cnc(NCC(F)(F)c2cccc[n+]2[O-])c1=O
[1]
  2x APTT: 0.13 µM
[2]
  Ki: 0.0034 nM
[3]
  Ki: 0.415 µM

## Cc1ccc(NS(=O)(=O)Cc2ccccc2)c(=O)n1CC(=O)NCc1cccc(CN)c1
[2]
  Ki: 490 nM
[3]
  Ki: 23 µM
[4]
  Selectivity ratio: 46.9

## Cc1cc(CNC(=O)[C@@H]2CCCN2C(=O)[C@H](N)C(c2ccccc2)c2ccccc2)c(C)cc1CN
[2]
  Ki: 39 nM

## N[C@H](Cc1ccccc1)C(=O)N1CCC[C@H]1C(=O)NCc1ccccc1
[3]
  Ki: > 1000 µM
[4]
  Selectivity ratio: > 217

## NCc1ccc(Cl)cc1CNC(=O)[C@@H]1CCCN1C(=O)[C@H](N)Cc1ccccc1
[1]
  2x APTT: 0.34 µM
[2]
  Ki: 3.3 nM
[3]
  Ki: 6.2 µM
[4]
  Selectivity ratio: 1910

## Cc1ccc(NS(=O)(=O)Cc2ccccc2)c(=O)n1CC(=O)NCc1ccccc1
[3]
  Ki: 466 µM
[4]
  Selectivity ratio: 3580

## CN(C(=O)C(Cc1ccc(CN)cc1)NS(=O)(=O)c1ccc2c(c1)CCCCC2)C1CCCC1 (configuration not stated)
[2]
  Ki: 3.3 nM
[3]
  Ki: 6.3 µM

## Cc1ccc(NS(=O)(=O)Cc2ccccc2)c(=O)n1CC(=O)NCc1cc(Cl)ccc1CN
[1]
  2x APTT: 0.16 µM
[2]
  Ki: 0.046 nM
[3]
  Ki: 1.85 µM
[4]
  Selectivity ratio: 40200

## Cc1ccc(NS(=O)(=O)Cc2ccccc2)c(=O)n1CC(=O)NCc1ccccc1CCN
[1]
  2x APTT: 0.53 µM
[2]
  Ki: 4.1 nM
[3]
  Ki: 437 µM
[4]
  Selectivity ratio: 107000

## Cc1ccc(NS(=O)(=O)Cc2ccccc2)c(=O)n1CC(=O)NCc1ccccc1N
[2]
  Ki: 470 nM
[3]
  Ki: > 1000 µM
[4]
  Selectivity ratio: > 2130

## COc1ccc2cc(S(=O)(=O)NC(Cc3ccc(CN)cc3)C(=O)N(C)C3CCCC3)ccc2c1 (configuration not stated)
[2]
  Ki: 6.6 nM
[3]
  Ki: 14.2 µM

## Cc1ccc(NS(=O)(=O)Cc2ccccc2)c(=O)n1CC(=O)NCc1ccc(CN)cc1
[2]
  Ki: 49 nM
[3]
  Ki: 1.3 µM
[4]
  Selectivity ratio: 26.5

## Cc1nc(N)ccc1CNC(=O)Cn1c(C)ccc(NS(=O)(=O)Cc2ccccc2)c1=O [L-374087]
[1]
  2x APTT: 0.22 µM
[4]
  Selectivity ratio: 6400

## Cc1cnc(NCCc2ccccc2)c(=O)n1CC(=O)NCc1cc(Cl)ccc1CN
[1]
  2x APTT: 0.41 µM
[2]
  Ki: 0.13 nM
[3]
  Ki: 1.6 µM
[4]
  Selectivity ratio: 12300

## Cc1ccc(NS(=O)(=O)Cc2ccccc2)c(=O)n1CC(=O)NCc1cccc(Cl)c1
[1]
  2x APTT: 2.8 µM
[2]
  Ki: 7.1 nM
[3]
  Ki: 20 µM
[4]
  Selectivity ratio: 2790

## NCCc1ccc(Cl)cc1CNC(=O)[C@@H]1CCCN1C(=O)[C@H](N)Cc1ccccc1
[2]
  Ki: 62 nM
[3]
  Ki: 252 µM
[4]
  Selectivity ratio: 4060

## Cc1ccc(NS(=O)(=O)Cc2ccccc2)c(=O)n1CC(=O)NCc1ccccc1CN
[1]
  2x APTT: 0.44 µM
[2]
  Ki: 5.2 nM
[3]
  Ki: 67 µM
[4]
  Selectivity ratio: 12900

## Cc1nc(N)ccc1CNC(=O)Cn1c(C)cnc(NCCc2ccccc2)c1=O [L-375378]
[1]
  2x APTT: 0.41 µM
[4]
  Selectivity ratio: 1910
